Test results taken from publication PMC5567253 (Scientific Reports, 2017).
Where two headings read alike, the source gives them in different places.

How the values were obtained:
[1] = In vivo pharmacokinetics in rat plasma (UPLC-MS/MS, NCA); design: species or system Sprague-Dawley (SD) rats; conditions: male, Sprague-Dawley, plasma, ip, intraperitoneal
Experimental: Male Sprague-Dawley (SD) rats (250 ± 50 g body weight) were purchased from Institute of Laboratory Animal Sciences, Peking Union Medical College (Beijing, China). Rats were housed in a light-controlled room at 25 ± 2 °C and 55 ± 5% relative humidity, at the Animal Center of Tianjin Medical University Cancer Institute and Hospital (Tianjin, China). Animals received a standard diet and water ad libitum. […] At 0, 10, 20, 30, 40 min, 1, 2, 3, 4, 6, 8, 10, 12, and 24 h post injection, blood samples were collected into heparinized glass tubes by direct venipuncture. Plasma was prepared from the blood by centrifugation at 13,000 rpm for 10 min at 4 °C and stored at −80 °C until further analysis.
An ACQUITY™ ultra-performance liquid chromatography system connected to a Xevo triple quadrupole mass spectrometry system (Waters, MA, USA) equipped with an electrospray ionization (ESI) source was used in this study. Aliquots (50 μl) of plasma was vortex-mixed with methanol (400 μl) containing diazepam (internal standard, 200 ng/ml concentration) for 2 min and then centrifuged at 13,000 rpm at 4 °C for 10 min. Then, 400 μl of supernatant was transferred to a clean centrifuge tube and dried with an N2 gas stream. Samples were reconstituted with 100 μl methanol/H2O (50/50, v/v). The injection volume of the assay was 5 μl. The mobile phase (MP) was composed of MPA (acetonitrile) and MPB (5 mM ammonium formate with 0.1% formic acid in water), and the flow rate was maintained at 0.3 ml/min. […] A switching valve directed the flow eluting between 1.0–2.5 min into a mass spectrometer, and the remainder to a waste container. BHX and diazepam were ionized with ESI in the positive mode and fragmented with collision gas for analysis using multiple reaction monitoring (MRM). The ESI source settings for the analysis were as follows: 350 °C gas temperature; 650 L/h desolvation; 50 L/h cone; 2.5 kV capillary voltage. […] The data acquisition and processing were done using MassLynx Mass Spectrometry software, version 4.1 (Waters, MA, USA). The dwell time was 400 ms for all ion transitions monitored.

[2] = test system: intracellular ROS in MDA-MB-231 cells; assay: Measurement of intracellular ROS (H2DCFDA); format: cell-based, human; conditions: 24 h, maximum potency at 20 μM
Experimental: The levels of intracellular ROS were monitored using dichlorofluorescein diacetate (H2DCFDA) as previously reported. […] The culture media were replaced with 1 ml of H2DCFDA/RPMI DMEM media and incubated at 37 °C for 30 min, with a final H2DCFDA concentration of 10 μM. The levels of ROS were then detected using flow cytometry (FACSCanto II, BD, San Jose, CA).

MDA-MB-231 cells [3] = assay: cells; conditions: Homo sapiens, MDA-MB-231, 48 h, read-out: approximate IC50 of colony forming ability
Experimental: The culture media was then aspirated and fresh cell culture media was added to allow colony formation. The culture media was changed every third day. The colonies were fixed with ice-cold methanol for 5 min and stained with 1.0% crystal violet for 30 min. Colony numbers were counted and representative photos were taken.

[4] = test system: Snail expression in MDA-MB-231 cells; assay: PCR analysis of Snail expression; format: cell-based, human; conditions: 24 h
Experimental: (§1) Total RNA from MDA-MB-231 cells was isolated using TRIzol (Life Technologies, USA). RNA samples were quantified using a NanoDrop 3300 spectrophotometer (Thermo Scientific, NanoDrop Products, Wilmington, DE, USA). Synthesis of cDNA was performed using a RevertAid First Strand cDNA Synthesis kit per manufacturer’s protocols (Thermo Scientific, USA). The reaction mixtures were heated at 95 °C for 10 min, followed by 30 cycles at 94 °C for 30 s, 58 °C for 30 s, 72 °C for 20 s, and a final extension at 72 °C for 5 min. Subsequently, PCR products were electrophoresed in a 1.5% agarose gel and scanned using a gel/fluorescence image analysis system. GAPDH was selected as a loading control to standardize the amount of cDNA from each sample.

MDA-MB-231 cells [5] = assay: Transwell invasion assay; format: cell-based, human; conditions: 20 μM, 24 h, normalized for cell viability
Experimental: Cell invasion and migration were measured using Transwell and wound healing assays, respectively. For Transwell assays, 2 × 10^4 cells were suspended in serum-free media and seeded in the top chamber of Matrigel-coated invasion inserts (Corning life science, Corning, NY). BHX was then added to the top chambers. DMEM containing 10% FBS was added to the lower chamber as a chemoattractant. After 24 h incubation, the non-invading cells on the upper surface of the membrane were wiped away, and the invading cells on the lower surface of the membrane were fixed using 95% ethanol and stained with 0.1% crystal violet. Images were captured at ×200 magnification using an inverted phase contrast microscope (BX61, Olympus, Japan). In parallel, cells were treated identically in 24-well plate. These cells were harvested, stained with 0.1% crystal violet, and counted. The number of cells that had invaded was normalized for effects on cell viability. For wound healing assays, cells were seeded at 2 × 10^5 cells/well in 24-well culture plates and allowed to reach confluence. […] Images of the scratches were recorded at ×40 magnification using a phase contrast microscope (EVOS, AMG, USA) at 0 and 20 h. The areas between leading edges were measured using Image J software, after which the rates of wound healing were calculated.

HT29 = test system: HT29; design: method as in PMID 24098916; conditions: cited from earlier work
MDA-MB-231 cells [6] = assay: Morphology of MDA-MB-231 cells after BHX; format: cell-based, human; conditions: 24 h incubation, more noticeable at high concentrations
[7] = test system: vimentin mRNA in MDA-MB-231 cells; assay: PCR analysis of vimentin mRNA; format: cell-based, human; conditions: 24 h
Experimental: as §1

MDA-MB-231 cells [8] = assay: Cell cycle analysis by flow cytometry; format: cell-based, human; conditions: 24 h, vehicle 31.52 ± 2.67%
Experimental: Cell cycle analysis was carried out as previously described. […] They were washed thrice with ice-cold phosphate-buffered saline (PBS) and fixed with 75% ethanol at −20 °C overnight. The cells were then washed, incubated with 5 μl of RNase (0.25 mg/ml) at 37 °C for 30 min, pelleted, resuspended in propidium iodide (PI, 50 μg/ml), and incubated in the dark at room temperature for 15 min. Cell cycle analysis was analysed using a flow cytometer (FACSCanto II, BD, San Jose, CA).

[9] = test system: Snail protein in MDA-MB-231 cells; assay: Western blotting of Snail; format: cell-based, human; conditions: western blot
Experimental: Total cell lysates were obtained by lysing the cells in SDS lysis buffer containing a protease inhibitor (PMSF), and protein concentrations were determined using a BCA protein assay kit. The proteins were separated by SDS-PAGE and transferred to PVDF membranes. The membranes were incubated with primary antibodies against Snail, Vimentin, β-catenin, and E-cadherin (1:1000 dilution) overnight at 4 °C, rinsed with TBST, and incubated with IRDye-conjugated anti-rabbit or anti-mouse IgG secondary antibodies (1:1000, LI-COR Biosciences). A β-actin-specific monoclonal antibody (1:1000 dilution) was used as a loading control. Bands were visualized with an Odyssey LI-COR infrared imaging system (LI-COR, Lincoln, NE).

MDA-MB-231 cells [10] = assay: cells; conditions: Homo sapiens, read-out: IC50 of suppression of cell viability
Experimental: After incubation, MTT solution (5 mg/ml, 20 μl per well) was added and incubated for 4 h. The culture media were then replaced with dimethyl sulfoxide (DMSO, 150 μl). […] The results are expressed as mean percentage of viable cells relative to untreated cells.

**Q.** Which Tmax ([1]; 50 ug/kg, 50 μg/kg, read-out: Tmax) does the source give for O=C(NCc1ccc(O)cc1)C1C(c2ccccc2)C(c2ccccc2)=NN1c1ccccc1 (stereo not drawn) [BHX] here?
**A.** 5.37 ± 1.16 h

**Q.** And the half-life ([1]; 50 ug/kg, 50 μg/kg, read-out: elimination half-life in plasma (converted))?
**A.** 4.82 ± 0.93 h

**Q.** And the AUC(0-t) ([1]; 50 ug/kg, first AUC0-t line)?
**A.** 1770 ± 325 ng·h/mL

**Q.** What about the AUC(0-t) ([1]; 50 ug/kg, second AUC0-t line) of the same molecule?
**A.** 1820 ± 287 ng·h/mL

**Q.** And the Cmax ([1]; 100 ug/kg)?
**A.** 405 ± 87.5 ng/mL

**Q.** What about the MRT last ([1]; 100 ug/kg, 100 μg/kg, read-out: MRT0-t) of the same molecule?
**A.** 6.36 ± 1.32 h

**Q.** And the Tmax ([1]; 100 ug/kg, 100 μg/kg, read-out: Tmax)?
**A.** 5.62 ± 1.38 h

**Q.** What about the half-life ([1]; 100 ug/kg, 100 μg/kg, read-out: t1/2 (converted)) of the same molecule?
**A.** 4.11 ± 0.81 h

**Q.** What about the AUC(0-t) ([1]; 100 ug/kg, first AUC0-t line) of the same molecule?
**A.** 2300 ± 412 ng·h/mL

**Q.** What about the AUC(0-t) ([1]; 100 ug/kg, second AUC0-t line) of the same molecule?
**A.** 2350 ± 303 ng·h/mL

**Q.** What about the Tmax ([1]; Fig. 7c, read-out: time to peak plasma level post administration) of the same molecule?
**A.** ~6 h

**Q.** What about the ROS generation [2] of the same molecule?
**A.** significantly increased in a dose-dependent manner

**Q.** What about the IC50 (MDA-MB-231 cells [3]) of the same molecule?
**A.** ~20 µM

**Q.** What about the “reduction of Snail expression” value ([4]; 5 μM) of the same molecule?
**A.** 7.03%

**Q.** What about the “reduction of Snail expression” value ([4]; 10 μM) of the same molecule?
**A.** 15.88%

**Q.** And the “reduction of Snail expression” value ([4]; 20 μM)?
**A.** 27.14%

**Q.** What about the “reduction of invasive potential” value (MDA-MB-231 cells [5]) of the same molecule?
**A.** 48.38%

**Q.** And the cytotoxic effects (HT29)?
**A.** exhibits cytotoxic effects

**Q.** And the morphological changes (MDA-MB-231 cells [6])?
**A.** cell shrinkage and fragmentation

**Q.** And the “reduction of vimentin mRNA levels” value ([7]; 5 μM)?
**A.** 4.89%

**Q.** What about the “reduction of vimentin mRNA levels” value ([7]; 10 μM) of the same molecule?
**A.** 26.27%

**Q.** And the “reduction of vimentin mRNA levels” value ([7]; 20 μM)?
**A.** 40.08%

**Q.** And the “percentage of cells in the G0/G1 phase” value (MDA-MB-231 cells [8]; 10 μM)?
**A.** 54.49 ± 1.93%

**Q.** What about the “percentage of cells in the G0/G1 phase” value (MDA-MB-231 cells [8]; 20 μM) of the same molecule?
**A.** 61.50 ± 2.85%

**Q.** And the Snail protein expression [9]?
**A.** down-regulating Snail and vimentin expression in a dose-dependent manner

**Q.** What about the IC50 (MDA-MB-231 cells [10]; MDA-MB-231, 24 h) of the same molecule?
**A.** 28.1 µM

**Q.** And the IC50 (MDA-MB-231 cells [10]; MDA-MB-231, 72 h)?
**A.** 13.8 µM
